Experimental data: patent US20220111065A1, “MOLECULAR ADJUVANT” (ADC THERAPEUTICS SA, priority 2018, published 2022)

B1: tremelimumab: anti-CTLA4 antibody (antibody)
VH: GVVQPGRSLRLSCAASGFTFSSYGMHWVRQAPGKGLEWVAVIWYDGSNKYYADSVKGRFTISRDNSKNTLYLQMNSLRAEDTAVYYCARDPRGATLYYYYYGMDVWGQGTTVTVSSASTKGPSVFPLAPCSRSTSESTAALGCLVKDYFPEPVTVSWNSGALTSGVH
VL: PSSLSASVGDRVTITCRASQSINSYLDWYQQKPGKAPKLLIYAASSLQSGVPSRFSGSGSGTDFTLTISSLQPEDFATYYCQQYYSTPFTFGPGTKVEIKRTVAAPSVFIFPPSDEQLKSGTASVVCLLNNFYPREAKV
modifications: Tremelimumab VH; Tremelimumab VL
notes: anti-CTLA4 antibody

What was measured:
[1] = system: CD25-positive acute myeloid leukemia (AML); experiment: Phase 1 study of ADCx25, weekly fractionated dosing, in relapsed or refractory AML/ALL (Example 2); format: in vivo, human
Description: Patients with relapsed or refractory cluster of differentiation 25 (CD25)-positive acute myeloid leukemia (AML) or CD25-positive acute lymphoblastic leukemia (ALL) who have failed, or are intolerant to, any established therapy known to provide clinical benefit at current state of disease. Patients with myelodysplastic syndrome who have received treatment with hypomethylating agents and subsequently present with CD25+ AML and who failed, or are ineligible for standard induction therapy, are eligible for treatment with ADCx25.
Assessment of response to treatment with ADCX25 will be based on bone marrow samples (aspirate or biopsy, if aspirate unattainable). The activity of ADCX25 will be evaluated based on the Investigator's evaluation of the patient's response to ADCX25 as CR, CRi, PR, PD, or NR as defined herein.
ADCX25 is a sterile formulation containing PBD-conjugated HuMax®-TAC (DAR≥1), HuMax®-TAC (DAR=0), and SG3249. It is provided pre-formulated in 10-mL glass vials containing approximately 30 mg of ADCX25 per vial (deliverable volume 5.4 mL at 6 mg/mL). The appropriate quantity of ADCX25 will be diluted in 50 mL of 5% dextrose in water (D5W).
Patients will receive a 1-hour intravenous (IV) infusion of ADCX25 on Day 1 of Cycle 1. […]

MC38 cells [2] = experiment: Re-challenge of tumor-free survivors from MC38 efficacy study (Example 3); format: in vivo, mouse; conditions: complete responders of Example 1 re-implanted with MC38 cells in contralateral flank; no treatment in re-challenge (FIG. 4)
Protocol: On Day 1 of the re-challenge study, 5×10^5 MC38 cells (0.1 mL suspension) were subcutaneously implanted into the left flank (contralateral to the original cell implant) and tumor growth was monitored. No ADC or anti-PD-1 treatment was administered in the rechallenge study.
Animal handling and tumour measurement was as in Example 1 unless otherwise stated.

CT26 cells = experiment: Re-challenge of tumor-free survivors from CT26 efficacy study (Example 5); format: in vivo, mouse; conditions: complete responders of Example 4 re-implanted with CT26 cells in contralateral flank; no treatment in re-challenge (FIG. 7)
Protocol: On Day 1 of the re-challenge study […] CT26 cells (0.1 mL suspension) were subcutaneously implanted into the left flank (contralateral to the cell implant of example 4) and tumor growth was monitored and measured as described in example 4.
No treatment was administered in the re-challenge study.

MC38 cells [3] = experiment: MC38 efficacy with CD8+ T-cell depletion by anti-CD8 (Example 6); format: in vivo, mouse; conditions: CD8+ T-cells depleted with anti-CD8-2.43 antibody (FIG. 8, FIG. 9)
Description: Treatment may cause partial regression (PR) or complete regression (CR) of the tumor in an animal.
In a PR response, the tumor volume is 50% or less of its Day 1 volume for three consecutive measurements during the course of the study, and equal to or greater than 13.5 mm^3 for one or more of these three measurements.
In a CR response, the tumor volume is less than 13.5 mm^3 for three consecutive measurements during the study.
Any animal with a CR response at the end of the study was additionally classified as a tumor-free survivor (TFS).
Animals were scored only once during the study for a PR or CR event and only as CR if both PR and CR criteria were satisfied.
The Coefficient of Drug Interaction (CDI) (11) in were assessed for subadditive, additive, or supra-additive (synergism) properties on Day 21, the last day all evaluable animals remained on study.
The CDI was determined according to the equation below:
Where, • x=mean tumor volume • AB=xAB/xC • A=xA/xC • B=xB/xC […]
On the day of implant 5×10^5 MC38 cells (0.1 mL suspension) were subcutaneously implanted into the right flank of each test animal. Tumors were monitored as their volumes approached the target range of 80-120 mm^3. […]
Tumors were measured twice per week until the study was ended (day29 for anti-CD8+surADCx25 and anti-CD8+anti-PD1+surADCx25 groups; day 44 for surADCx25 alone and surADCx25+anti-CD8). […]

[4] = system: selected advanced solid tumors; experiment: Phase 1b dose-escalation study of Camidanlumab Tesirine in advanced solid tumors (Example 9); format: in vivo, human
Description: This is a report of preliminary data from a Phase 1b trial of Camidanlumab Tesirine (NCT03621982; ADC Therapeutics) in patients (pt) with selected advanced solid tumors […] (AST) who have failed existing therapies.
This multicenter, open-label, dose-escalation (part 1), and dose-expansion (part 2) study is currently enrolling subjects (aged≥18 years) with selected AST. The primary objective is to evaluate the safety and tolerability and to identify the recommended dose. Secondary objectives are to assess preliminary antitumor activity, pharmacokinetics (PK), and immunogenicity.
Subjects receive 1-hour intravenous infusions of Camidanlumab Tesirine every 3 weeks (Q3W) from a starting dose cohort of 20 μg/kg. Subsequent cohorts are enrolled at escalating doses according to a 3+3 design.

advanced melanoma = conditions: phase III trials; cited from earlier work
[5] = 6 subjects, 20-30 μg/kg Q3W i.v., preliminary

Molecule | clinical response of AML ([1]; 2 subjects with AML who had previously received bone marrow stem cell transfers) | response to treatment ([1]; Patient 1: relapsed AML FAB M0, 30 ug/kg QW cohort, prior allogenic transplant, after 5 cycles) | development of new tumors on re-challenge (MC38 cells [2]) | development of new tumors on re-challenge (CT26 cells) | anti-tumor activity when CD8+ T-cells are depleted (MC38 cells [3]) | number of subjects with stable disease ([4]; 20 μg/kg Q3W) | number of subjects with stable disease ([4]; 30 μg/kg Q3W, reported a few days after the cutoff date) | dose-limiting toxicities ([4]; 6 subjects, 20-30 μg/kg Q3W i.v., 21-day reporting period, preliminary, as of Apr. 16, 2019) | best response recorded (response evaluation criteria in solid tumors) [4, 5] | most common (≥3 pts) adverse events regardless of relationship [4, 5] | related high-grade AEs or serious AEs [4, 5] | overall survival compared to the standard of care (temozolomide or dacarbazine) (advanced melanoma)
ADCx25: human antibody against human CD25 (AB12, HuMax-TAC) attached to a pyrrolobenzodiazepine (PBD) warhead via a cleavable linker | complete remission | CRi | did not develop new tumors | did not develop new tumors | dependent on CD8+ T-cells | 2 | 2 | No dose-limiting toxicities | Stable disease | fatigue and nausea | no reported grade ?3 AEs or serious AEs considered related | 
B1 |  |  |  |  |  |  |  |  |  |  |  | did not significantly increase
